Results: BigSolDB 2.1

Brc1cn[nH]c1
solubility (mole fraction)
Conditions	in ethanol	in methanol	in water
283.15 K	0.265	0.203	0.0048
285.65 K	0.275	0.218	0.00501
288.15 K	0.287	0.234	0.00532
290.65 K	0.299	0.252	0.00562
293.15 K	0.311	0.27	0.00591
295.65 K	0.325	0.292	0.00623
298.15 K	0.339	0.312	0.0066
300.65 K	0.354	0.333	0.00696
303.15 K	0.372	0.355	0.00733
305.65 K	0.39	0.379	0.00772
308.15 K	0.409	0.402	0.00809
310.65 K	0.431	0.426	0.00848
313.15 K	0.457	0.452	0.00895
315.65 K	0.481	0.479	0.00941
318.15 K	0.506	0.503	0.00987
